Measured values published in paper PMC8954733, “Microbial Transformation and Biological Activities of the Prenylated Aromatic Compounds from Broussonetia kazinoki” (Molecules, 2022).
Read-outs that look alike come from different tables or passages of the source.

Tests used:
[1] = tested on: A375P (human melanoma) cell line; test: MTT cytotoxicity assay, A375P; format: cell-based; conditions: 24 h treatment, mean ± SD, read-out: Cytotoxic effect IC50, cell line A375P
Method: (§1) To evaluate the anticancer potential of compounds 1–11, an MTT assay was used to determine the cell viability of human melanoma (A375P) and murine melanoma (B16F10 and B16F1) cell lines following a 24 h treatment with compounds 1–11.
(§2) The cytotoxic activities of all the compounds (1–11) were evaluated using the MTT assay. Briefly, the A375P (human melanoma), B16F10 and B16F1 (mouse melanoma) cell lines obtained from the Korean Cell Line Bank (Seoul, Korea) were cultured in Dulbecco’s Modified Eagle’s Medium (DMEM) (Gibco, CA, USA) containing penicillin (100 units/mL)-streptomycin (100 µg/mL) (Gibco, CA, USA) and 5% heat-inactivated fetal bovine serum (FBS) (Welgene, Korea) in a humidified chamber with 5% CO2 at 37 °C. The cells were seeded in 96-well plates at a density of 6 × 10^3 cells/well and incubated for 24 h. The medium was then aspirated and replaced with 100 μL of fresh medium containing various concentrations of the test compound. After incubation for a further 24 h, the compound containing the medium was replaced with 100 μL of a MTT solution (0.5 mg/mL) and incubated for 4 h. Then the insoluble formazan crystals were dissolved in 100 µL of DMSO and measured at 490 nm on a microplate reader.

mushroom tyrosinase = test: Mushroom tyrosinase inhibition (L-tyrosine substrate, dopachrome absorbance at 490 nm); format: biochemical; conditions: L-tyrosine as substrate, 30 min at 37 °C, mean ± SD, read-out: Anti-Tyrosinase IC50
Method: All the compounds were investigated for their tyrosinase inhibitory effects using L-tyrosine as the substrate. […] All the compounds were first dissolved in dimethyl sulfoxide (DMSO) and then diluted into different concentrations (1, 2, 4, 10, 40, 80, and 160 µM). An amount of 100 µL of each sample solution and 50 µL of the 2 mM L-tyrosine solution in 0.1 M phosphate buffer (pH 6.5) were added to 96-well microplates. After incubation at room temperature for 5 min, 50 µL of mushroom tyrosinase (300 U/mL in phosphate buffer) was added to each well. After further incubation for 30 min under 37 °C, the absorbance of dopachrome produced in the mixture was determined at 490 nm with a microplate reader (SpectraMax 190; Molecular Devices, Sunnyvale, CA, USA). The percent of inhibition of tyrosinase activity was calculated using the formula: % inhibition = (A − B)/A × 100, in which A is the absorbance at 490 nm without the test sample, and B is the absorbance at 490 nm with the test sample. IC50 values were calculated from the mean values of data from four determinations.

[2] = tested on: B16F1 (mouse melanoma) cell line; test: MTT cytotoxicity assay, B16F1; format: cell-based; conditions: 24 h treatment, mean ± SD, read-out: Cytotoxic effect IC50, cell line B16F1
Method: as §1, §2

[3] = tested on: B16F10 (mouse melanoma) cell line; test: MTT cytotoxicity assay, B16F10; format: cell-based; conditions: 24 h treatment, mean ± SD, read-out: Cytotoxic effect IC50, cell line B16F10
Method: as §1, §2

## C=CC(C)(C)c1cc(CCCc2cc(O)c(O)c(CC=C(C)C)c2CC=C(C)C)c(O)cc1O [Compound 1, Kazinol C]
[1]; Homo sapiens, A375P, 24 h
  IC50: 12.1 ± 0.24 µM
Mushroom tyrosinase
  IC50: > 80 µM
[2]; Mus musculus, B16-F1, 24 h
  IC50: 17.6 ± 0.33 µM
[3]; Mus musculus, B16-F10, 24 h
  IC50: 26 ± 0.33 µM

## C=CC(C)(C)c1cc2c(cc1O)O[C@H](c1cc(O)c(O)c(CC=C(C)C)c1CC=C(C)C)CC2 [Compound 2, Kazinol E]
[1]; Homo sapiens, A375P, 24 h
  IC50: 11.5 ± 0.24 µM
Mushroom tyrosinase
  IC50: > 80 µM
[2]; Mus musculus, B16-F1, 24 h
  IC50: 13.3 ± 0.22 µM
[3]; Mus musculus, B16-F10, 24 h
  IC50: 12.1 ± 0.87 µM

## CC(C)=CCc1c(CCCc2ccc(O)cc2O)cc(O)c(O)c1CC=C(C)C [Compound 3, Kazinol F]
[1]; Homo sapiens, A375P, 24 h
  IC50: 18.16 ± 0.09 µM
Mushroom tyrosinase
  IC50: 2.12 ± 0.21 µM
[2]; Mus musculus, B16-F1, 24 h
  IC50: 13.8 ± 0.88 µM
[3]; Mus musculus, B16-F10, 24 h
  IC50: 19.9 ± 0.73 µM

## CC(C)=CCc1c([C@H]2Oc3cc(O)cc(O)c3C(=O)[C@@H]2O)cc(O)c(O)c1CC=C(C)C [Compound 4, (2R,3R)-3,5,7,3′,4′-pentahydroxy-5′,6′-diprenylflavanonol]
[1]; Homo sapiens, A375P, 24 h
  IC50: 13.8 ± 1 µM
Mushroom tyrosinase
  IC50: 24.1 ± 0.3 µM
[2]; Mus musculus, B16-F1, 24 h
  IC50: 24.4 ± 1.82 µM
[3]; Mus musculus, B16-F10, 24 h
  IC50: 27.8 ± 0.63 µM

## C=CC(C)(C)c1cc(CCCc2cc(O)c3c(c2CC=C(C)C)C[C@H](C(C)(C)OC)O3)c(O)cc1O [Compound 5, 5′-(2-methylbut-3-en-2-yl)-6″-(3-methylbut-2-enyl)-4″,5″-[(R)-2-(1-methoxy-1-methylethyl)]-dihydrofuranyl-2′,4′,3″-trihydroxydiphenylpropane]
[1]; Homo sapiens, A375P, 24 h
  IC50: 45.9 ± 0.65 µM
Mushroom tyrosinase
  IC50: > 80 µM
[2]; Mus musculus, B16-F1, 24 h
  IC50: 17.3 ± 0.22 µM
[3]; Mus musculus, B16-F10, 24 h
  IC50: 43.2 ± 0.71 µM

## O=c1[nH]cc(F)c(=O)[nH]1 [Compound 5-FU, 5-FU, reference compound]
[1]
  IC50: 13.1 ± 1.55 µM
[2]
  IC50: 12.8 ± 0.16 µM
[3]
  IC50: 4.61 ± 0.16 µM

## C=CC(C)(C)c1cc(CCCc2cc(O[C@@H]3O[C@H](CO)[C@@H](O)[C@H](O)[C@H]3O)c(O)c(CC=C(C)C)c2CC=C(C)C)c(O)cc1O [Compound 6, Kazinol C-3″-O-β-D-glucopyranoside]
[1]; Homo sapiens, A375P, 24 h
  IC50: > 80 µM
Mushroom tyrosinase
  IC50: > 80 µM
[2]; Mus musculus, B16-F1, 24 h
  IC50: > 80 µM
[3]; Mus musculus, B16-F10, 24 h
  IC50: > 80 µM

## C=CC(C)(C)c1cc(CCCc2cc(O[C@@H]3O[C@H](CO)[C@@H](O)[C@H](O)[C@H]3O)c(O)c(CC=C(C)C)c2CC=C(C)C)c(O[C@@H]2O[C@H](CO)[C@@H](O)[C@H](O)[C@H]2O)cc1O [Compound 7, kazinol C-2′,3″-di-O-β-D-glucopyranoside]
[1]
  IC50: 23.6 ± 0.52 µM
[1]; Homo sapiens, A375P, 24 h
  IC50: 17.8 to 24.2 µM
Mushroom tyrosinase
  IC50: > 80 µM
[2]
  IC50: 17.8 ± 1.65 µM
[2]; Mus musculus, B16-F1, 24 h
  IC50: 17.8 to 24.2 µM
[3]
  IC50: 24.2 ± 1.26 µM
[3]; Mus musculus, B16-F10, 24 h
  IC50: 17.8 to 24.2 µM

## C=CC(C)(C)c1cc(CCCc2cc(O)c(O[C@@H]3O[C@H](CO)[C@@H](O)[C@H](O)[C@H]3O)c(CC=C(C)C)c2CC=C(C)C)c(O)cc1O [Compound 8, Kazinol C-4″-O-β-D-glucopyranoside]
[1]; Homo sapiens, A375P, 24 h
  IC50: > 80 µM
Mushroom tyrosinase
  IC50: > 80 µM
[2]; Mus musculus, B16-F1, 24 h
  IC50: > 80 µM
[3]; Mus musculus, B16-F10, 24 h
  IC50: > 80 µM

## C=CC(C)(C)c1cc(CCCc2cc(O[C@@H]3O[C@H](CO)[C@@H](O)[C@H](O)[C@H]3O)c(O[C@@H]3O[C@H](CO)[C@@H](O)[C@H](O)[C@H]3O)c(CC=C(C)C)c2CC=C(C)C)c(O)cc1O [Compound 9, kazinol C-3″,4″-di-O-β-D-glucopyranoside]
[1]; Homo sapiens, A375P, 24 h
  IC50: > 80 µM
Mushroom tyrosinase
  IC50: > 80 µM
[2]; Mus musculus, B16-F1, 24 h
  IC50: > 80 µM
[3]; Mus musculus, B16-F10, 24 h
  IC50: > 80 µM

## CC(C)=CCc1c(CCCc2ccc(O)cc2O)cc(O)c(O[C@@H]2O[C@H](CO)[C@@H](O)[C@H](O)[C@H]2O)c1CC=C(C)C [Compound 11, Kazinol F-4″-O-β-D-glucopyranoside]
[1]; Homo sapiens, A375P, 24 h
  IC50: > 80 µM
Mushroom tyrosinase
  IC50: 0.71 ± 0.01 µM
[2]; Mus musculus, B16-F1, 24 h
  IC50: > 80 µM
[3]; Mus musculus, B16-F10, 24 h
  IC50: > 80 µM
